Measurements: PubChem BioAssay AID2060493 (Molecular Pharmacology Branch, DTP, NCI, 2025)

Test system: 616215-338-R-J1-PDC tumor spheroids, viability
Assay: Anticancer human tumor 616215-338-R-J1-PDC patient-derived colon adenocarcinoma cell line growth inhibition [GQUAD]
Settings: spheroids with HUVEC and MSC; for IC50: curve of first compound; for viability, T/C: stronger effect = lower value
In short: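 Tumor cells were grown as complex spheroids with HUVEC endothelial cells and mesenchymal stem cells as stroma. G-quadruplex stabilizers were combined with targeted agents over half-log dilutions from near the clinical Cmax, or from 10 microM.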

[1] = second compound 0.0316 µM, first compound 0.0316 µM
[2] = second compound 0.0316 µM, first compound 0.1 µM
[3] = second compound 0.0316 µM, first compound 0.316 µM
[4] = second compound 0.0316 µM, first compound 1 µM
[5] = second compound 0.0316 µM, first compound 3.16 µM
[6] = second compound 0.0316 µM, first compound 10 µM
[7] = second compound 0.1 µM, first compound 0.0316 µM
[8] = second compound 0.1 µM, first compound 0.1 µM
[9] = second compound 0.1 µM, first compound 0.316 µM
[10] = second compound 0.1 µM, first compound 1 µM
[11] = second compound 0.1 µM, first compound 3.16 µM
[12] = second compound 0.1 µM, first compound 10 µM
[13] = second compound 0.316 µM, first compound 0.0316 µM
[14] = second compound 0.316 µM, first compound 0.1 µM
[15] = second compound 0.316 µM, first compound 0.316 µM
[16] = second compound 0.316 µM, first compound 1 µM
[17] = second compound 0.316 µM, first compound 3.16 µM
[18] = second compound 0.316 µM, first compound 10 µM
[19] = second compound 1 µM, first compound 0.0316 µM
[20] = second compound 1 µM, first compound 0.1 µM
[21] = second compound 1 µM, first compound 0.316 µM
[22] = second compound 1 µM, first compound 1 µM
[23] = second compound 1 µM, first compound 3.16 µM
[24] = second compound 1 µM, first compound 10 µM
[25] = second compound 3.16 µM, first compound 0.0316 µM
[26] = second compound 3.16 µM, first compound 0.1 µM
[27] = second compound 3.16 µM, first compound 0.316 µM
[28] = second compound 3.16 µM, first compound 1 µM
[29] = second compound 3.16 µM, first compound 3.16 µM
[30] = second compound 3.16 µM, first compound 10 µM
[31] = second compound 10 µM, first compound 0.0316 µM
[32] = second compound 10 µM, first compound 0.1 µM
[33] = second compound 10 µM, first compound 0.316 µM
[34] = second compound 10 µM, first compound 1 µM
[35] = second compound 10 µM, first compound 3.16 µM
[36] = second compound 10 µM, first compound 10 µM
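Note: spheroids exposed to agents for 7 days before readout.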
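Throughout, for viability, T/C: percent viability relative to DMSO vehicle control wells taken as 100%.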

Work on `O=c1[nH]cc(F)c(=O)[nH]1` + CN(C)c1ccc(Nc2c3ccc(NC(=O)CCN4CCCC4)cc3nc3cc(NC(=O)CCN4CCCC4)ccc23)cc1 yielded an IC50 (second compound 0.0316 µM) of 663 nM, an IC50 (second compound 0.1 µM) of 505 nM and an IC50 (second compound 0.316 µM) of 455 nM. It also gave an IC50 (second compound 1 µM) of 562 nM, an IC50 (second compound 3.16 µM) of 383 nM and an IC50 (second compound 10 µM) of 373 nM. It also gave a viability, T/C [1] of 98.4%, a viability, T/C [2] of 89.3% and a viability, T/C [3] of 66.6%. For the same compound, the viability, T/C [4] was 39.8%, the viability, T/C [5] was 36.4% and the viability, T/C [6] was 32.8%. The viability, T/C [7] was 95.3%, the viability, T/C [8] was 94.3% and the viability, T/C [9] was 58.8%. It also gave a viability, T/C [10] of 38%, a viability, T/C [11] of 38.1% and a viability, T/C [12] of 33.9%. It also gave a viability, T/C [13] of 93.9%, a viability, T/C [14] of 81.2% and a viability, T/C [15] of 54.5%. The viability, T/C [16] was 39.6%, the viability, T/C [17] was 36.7% and the viability, T/C [18] was 32.8%. It also gave a viability, T/C [19] of 101%, a viability, T/C [20] of 86.4% and a viability, T/C [21] of 59.2%. For the same compound, the viability, T/C [22] was 41.6%, the viability, T/C [23] was 31.2% and the viability, T/C [24] was 33.6%. For the same compound, the viability, T/C [25] was 84.5%, the viability, T/C [26] was 83.8% and the viability, T/C [27] was 52.5%. The viability, T/C [28] was 38%, the viability, T/C [29] was 32% and the viability, T/C [30] was 34%. The viability, T/C [31] was 87.6%, the viability, T/C [32] was 71.3% and the viability, T/C [33] was 52.4%. The viability, T/C [34] was 38.9%, the viability, T/C [35] was 38.3% and the viability, T/C [36] was 35.5%.

`C#Cc1c(F)ccc2cc(O)cc(-c3ncc4c(N5CC6CCC(C5)N6)nc(OCC56CCCN5CC(F)C6)nc4c3F)c12` (stereo not drawn) + Cc1[nH]c2ccc(F)cc2c1-c1nc2c3cccnc3c3ncccc3c2[nH]1 was tested, and the IC50 (second compound 0.0316 µM) was greater than 10000 nM, the IC50 (second compound 0.1 µM) was greater than 10000 nM and the IC50 (second compound 0.316 µM) was greater than 10000 nM. It also gave an IC50 (second compound 1 µM) greater than 10000 nM, an IC50 (second compound 3.16 µM) of 8110 nM and an IC50 (second compound 10 µM) of 6030 nM. It also gave a viability, T/C [1] of 104%, a viability, T/C [2] of 109% and a viability, T/C [3] of 103%. The viability, T/C [4] was 111%, the viability, T/C [5] was 97.4% and the viability, T/C [6] was 73.3%. The viability, T/C [7] was 107%, the viability, T/C [8] was 111% and the viability, T/C [9] was 126%. It also gave a viability, T/C [10] of 113%, a viability, T/C [11] of 96% and a viability, T/C [12] of 78.4%. It also gave a viability, T/C [13] of 113%, a viability, T/C [14] of 96.9% and a viability, T/C [15] of 124%. For the same compound, the viability, T/C [16] was 116%, the viability, T/C [17] was 106% and the viability, T/C [18] was 56.9%. The viability, T/C [19] was 105%, the viability, T/C [20] was 99.9% and the viability, T/C [21] was 97.9%. The viability, T/C [22] was 108%, the viability, T/C [23] was 83.8% and the viability, T/C [24] was 64.4%. The viability, T/C [25] was 102%, the viability, T/C [26] was 106% and the viability, T/C [27] was 116%. For the same compound, the viability, T/C [28] was 94.1%, the viability, T/C [29] was 82.6% and the viability, T/C [30] was 42.9%. It also gave a viability, T/C [31] of 97.2%, a viability, T/C [32] of 101% and a viability, T/C [33] of 110%. For the same compound, the viability, T/C [34] was 82.1%, the viability, T/C [35] was 60.8% and the viability, T/C [36] was 42.4%.

With `Nc1ccn(C2OC(CO)C(O)C2(F)F)c(=O)n1` (stereo not drawn) + CN(C)c1ccc(Nc2c3ccc(NC(=O)CCN4CCCC4)cc3nc3cc(NC(=O)CCN4CCCC4)ccc23)cc1 the IC50 (second compound 0.0316 µM) was less than 31.6 nM, the IC50 (second compound 0.1 µM) was less than 31.6 nM and the IC50 (second compound 0.316 µM) was less than 31.6 nM. It also gave an IC50 (second compound 1 µM) of less than 31.6 nM, an IC50 (second compound 3.16 µM) of less than 31.6 nM and an IC50 (second compound 10 µM) of less than 31.6 nM. For the same compound, the viability, T/C [1] was 39.4%, the viability, T/C [2] was 18.3% and the viability, T/C [3] was 11.6%. It also gave a viability, T/C [4] of 9.94%, a viability, T/C [5] of 10.2% and a viability, T/C [6] of 11.1%. It also gave a viability, T/C [7] of 39.2%, a viability, T/C [8] of 14.7% and a viability, T/C [9] of 12%. For the same compound, the viability, T/C [10] was 9.37%, the viability, T/C [11] was 10.9% and the viability, T/C [12] was 8.91%. It also gave a viability, T/C [13] of 43.8%, a viability, T/C [14] of 20.2% and a viability, T/C [15] of 11.3%. It also gave a viability, T/C [16] of 7.36%, a viability, T/C [17] of 8.69% and a viability, T/C [18] of 10.9%. It also gave a viability, T/C [19] of 34.6%, a viability, T/C [20] of 19.2% and a viability, T/C [21] of 9.69%. For the same compound, the viability, T/C [22] was 9.64%, the viability, T/C [23] was 11.7% and the viability, T/C [24] was 14.1%. The viability, T/C [25] was 45.3%, the viability, T/C [26] was 26% and the viability, T/C [27] was 12.3%. For the same compound, the viability, T/C [28] was 8.37%, the viability, T/C [29] was 11.2% and the viability, T/C [30] was 9.17%. The viability, T/C [31] was 30.2%, the viability, T/C [32] was 19.6% and the viability, T/C [33] was 7.93%. The viability, T/C [34] was 6.14%, the viability, T/C [35] was 8.89% and the viability, T/C [36] was 8.2%.

Compound `CC1COCCN1c1cc(C2(O)CC3CCC(C2)O3)c2cnn(-c3ccn[nH]3)c2n1` (stereo not drawn) + CN(C)c1ccc(Nc2c3ccc(NC(=O)CCN4CCCC4)cc3nc3cc(NC(=O)CCN4CCCC4)ccc23)cc1 has an IC50 (second compound 0.0316 µM) of 184 nM, an IC50 (second compound 0.1 µM) of 213 nM and an IC50 (second compound 0.316 µM) of 196 nM. It also gave an IC50 (second compound 1 µM) of 201 nM, an IC50 (second compound 3.16 µM) of 225 nM and an IC50 (second compound 10 µM) of 139 nM. For the same compound, the viability, T/C [1] was 98.6%, the viability, T/C [2] was 63.5% and the viability, T/C [3] was 38.5%. For the same compound, the viability, T/C [4] was 24%, the viability, T/C [5] was 15.5% and the viability, T/C [6] was 18.4%. It also gave a viability, T/C [7] of 102%, a viability, T/C [8] of 72.7% and a viability, T/C [9] of 34.7%. The viability, T/C [10] was 30.3%, the viability, T/C [11] was 20.8% and the viability, T/C [12] was 15.2%. It also gave a viability, T/C [13] of 94.3%, a viability, T/C [14] of 64.7% and a viability, T/C [15] of 36.4%. The viability, T/C [16] was 31.9%, the viability, T/C [17] was 17.3% and the viability, T/C [18] was 15.3%. The viability, T/C [19] was 95.4%, the viability, T/C [20] was 72.5% and the viability, T/C [21] was 34.3%. For the same compound, the viability, T/C [22] was 24.1%, the viability, T/C [23] was 24.4% and the viability, T/C [24] was 11.7%. For the same compound, the viability, T/C [25] was 99.5%, the viability, T/C [26] was 67.2% and the viability, T/C [27] was 41.3%. For the same compound, the viability, T/C [28] was 28.4%, the viability, T/C [29] was 25.2% and the viability, T/C [30] was 13.2%. For the same compound, the viability, T/C [31] was 84.7%, the viability, T/C [32] was 55.2% and the viability, T/C [33] was 35.2%. It also gave a viability, T/C [34] of 27.1%, a viability, T/C [35] of 24.2% and a viability, T/C [36] of 13.4%.
